Here are results for twelve molecules from US4276430A, “Analgesic and anti-inflammatory compounds and compositions containing same” (The Procter & Gamble Company, priority 1979, dated 1981).

A short description of series [1]: guinea pig ultraviolet light induced erythema test. Type of series: in vivo, guinea pig (Hartley strain albino). As to conditions: Cavia porcellus; topical; cumulative blanching grades over a 1-4 hour period after application; vehicle propylene glycol/ethanol; read-out: IC50 (concentration which inhibits UV-induced erythema by 50%). The protocol: The compositions of this invention are evaluated for their anti-inflammation properties using a guinea pig ultraviolet light induced erythema test.
Hartley strain albino guinea pigs weighing between 400 and 500 grams are clipped on the dorsal area and then depilated using a cream hair remover. 15 minutes after the application of the hair remover, the area is thoroughly washed using warm tap water and then dried with a towel. […] Ten minutes irradiation constitutes a minimal erythema dose. An adhesive tape strip is attached to the center of the guinea pig's back to retain an unirradiated portion of skin. About 1 hour after irradiation time, 3 preparations are applied on each side using a micropipette. The treated areas are about 1×4 cm in size and are aligned vertically from near the center back down the side. The degree of blanching is determined at hourly intervals.
Compositions as below are formulated and tested.
*Dihydroxybenzoic acid derivative
Comparisons of the anti-inflammatory activity of the dihydroxybenzoic acid derivatives are made by calculating their IC50 values.

A short description of series [2]: UV-induced erythema test in humans: anti-erythemic activity (blanching). The settings on record: for blanching response: first 3-4 hours after a single application. Format: in vivo, human.
Series [3] in a line: UV-induced pain test in humans: analgesic activity (radiant heat pain stimulus). Format: in vivo, human. As to conditions: for Recovery of Treated Skin: 1% (w/w) in propylene glycol/ethanol. From the text: The UV-induced erythema and/or pain model consists of creating a burn with ultraviolet light (UV) and treating the resultant erythemal reaction with topical applications of the new drug formulations. At various time intervals, the degree of erythema and the pain tolerance response to radiant heat are monitored.
Experiments have been designed to determine the effectiveness of benzyl 2,5-diacetoxybenzoate according to several parameters: treatment times, concentration of drug, repeated applications,duration of response, and vehicles.
A total of 56 subjects were actually used in the UV-induced erythema and pain tests.
The compositions of the test formulations employed in these studies were as follows: […]
(E) 0.01-0.5% (w/w) benzyl 2,5-diacetoxybenzoate in ethanol/propylene glycol/water (50/10/40, w/w/w);
(G)* 0.025 to 2.5% (w/w) benzyl 2,5-diacetoxybenzoate in a cream vehicle;
Induction of Erythema: Subjects were irradiated on a 2.5×20 cm area on their backs, using a bank of three 20S Westinghouse fluorescent lamps at a distance of 15 cm. Each subject received 2 to 4 MEDs of light (minimum erythemal dose) for these experiments.
Treatment with Formulations: The UV-irradiated area was divided into 4 treatment sites. When liquid formulations were tested, up to 40 microliter were topically applied to each treatment site using an Eppendorf micropipet. When cream formulations were tested, no more than 100 microliter were topically applied to each treatment site using a 1 cc tuberculin syringe with no needle; the cream was rubbed into the skin with a gloved finger.
Each site was treated no more than 4 times, and all treatments occurred within the 24-hour interval following UV-irradiation.
A randomixed treatment sequence was used.
2. Analgesic At suitable time
Elapsed time, in seconds,
Activity intervals within
to respond to a radiant
treated and untreated skin.
Skin irradiated with 3-4 MEDs (minimal erythemal doses) of UV-B light (normal sunburn range) becomes hyperalgesic to radiant heat in about four hours.
The experimental design was regarded as randomized blocks, in which the subject is the "block". The variation between subjects with respect to erythema or analgesic response was accounted for as a source of variation in the Analysis of Variance (ANOVA).

Series [4] in a line: suppression of inflammation associated with arthritis (Mycobacterium butyricum, hind paw volume). As to conditions: topical 20 mg/kg/day, five weeks. Type of series: in vivo, rat (Male Sprague-Dawley). How it is done: This example illustrates the efficacy of the dihydroxybenzoic acid derivatives described herein for suppressing the inflammation associated with arthritis.
Male Sprague-Dawley rats, weighing between 180-200 grams, are injected subcutaneously in the distal third of the tail with a suspension of 0.8 mg of heat-killed Mycobacterium butyricum in 0.1 ml of mineral oil. This injection introduces arthritis into the rat as evidenced by pedal edema (swelling). Measurement of the alleviation of the inflammation associated with the arthritis is made by determining the volume of the hind paws initially, two weeks later, and each subsequent week thereafter. The paw volume measurements are obtained by immersing each rat's hind paw up to a predetermined mark in a mercury bath connected to a Statham pressure transducer. The increase in pressure within the bath is proportional to the volume of the paw introduced.
A solution of benzyl 2,5-diacetoxybenzoate is made. The solution comprises a 1:1 mixture of propylene glycol and ethanol and 2% benzyl 2,5-diacetoxybenzoate. In one group, each rat is treated topically with 20 mg/kg/day of the benzyl 2,5-diacetoxybenzoate solution. The changes in paw volume after each treatment are compared to the control rats.

The conditions of series [5]: administered orally; aspirin-based products; cited from earlier work.
For series [6] the following is noted: cited from earlier work.
[7] abbreviates: vehicle propylene glycol/ethanol (50/50, w/w).

For `CCOC(=O)c1cc(OC(C)=O)ccc1OC(C)=O` [C2 H5], in series [1], the IC50 stood at 1800 µM.
Regarding `CCCCC(CC)COC(=O)c1cc(OC(C)=O)ccc1OC(C)=O` (stereo not shown) [C2 H3 (C2 H5)C4 H9, 2'-ethylhexyl 2,5-diacetoxybenzoate], the IC50 in series [1] was found to be 5800 µM.
As for `CCCCCCOC(=O)c1cc(OC(C)=O)ccc1OC(C)=O` [C6 H13, Hexyl 2,5-diacetoxybenzoate], in series [1], the IC50 stood at 340 µM.
Same read-out and setting: the result for `CCCCOC(=O)c1cc(OC(C)=O)ccc1OC(C)=O` [C4 H9, n-Butyl 2,5-diacetoxybenzoate] reads 1200 µM; that for `CCCCCCCCOC(=O)c1cc(OC(C)=O)ccc1OC(C)=O` [C8 H17], 340 µM; that for `CCCOC(=O)c1cc(OC(C)=O)ccc1OC(C)=O` [C3 H7, Propyl 2,5-diacetoxybenzoate], 1100 µM.
On the same count and under the same terms, as for `CCCCCCCCCCOC(=O)c1cc(OC(C)=O)ccc1OC(C)=O` [C10 H21, Decyl 2,5-diacetoxybenzoate], the figure is 650 µM; as for `COC(=O)c1cc(OC(C)=O)ccc1OC(C)=O` [CH3], 2300 µM.
With `CC(=O)Oc1ccc(OC(C)=O)c(C(=O)OCc2ccccc2)c1` [Benzyl 2,5-diacetoxybenzoate], in series [1], the IC50 was determined as 400 µM. In addition, the blanching response entry is recorded as “distinctly weaker” in series [2] (0.01%) and “very similar responses” in series [2] (0.03-2.5%). Further, the “blanching response, multiple application compared with single application” value in series [2] (1 to 2.5%, 1 to 4 times within 24 hours) is reported as “did not produce an effect greater than obtained with a single application”. In addition, in series [2] (after drug treatment), the “half-life of the response (time for the maximum response to diminish 50%)” value is “about 9 hours”. Besides, in series [2] (after drug treatment), the “time of maximum blanching response” value lay within 2 to 3 h. Further, in series [2] (application from a few minutes to 24 hours following UV-irradiation), the “effect of treatment time on blanching response” value is “the earlier a given treatment was made after UV-irradiation, the greater the blanching response”. Moreover, the “vehicle effectiveness, peak blanching response: rank 1 (decreasing order)” value in series [2] (at a given concentration) is on record as “propylene glycol/ethanol (50/50, w/w)”. In addition, in series [2] (at a given concentration), the “vehicle effectiveness, peak blanching response: rank 2 (decreasing order)” value is listed as “ethanol/propylene glycol/water (50/10/40, w/w/w)=cream”. Moreover, the “vehicle effectiveness, peak blanching response: rank 3 (decreasing order)” value in series [2] (at a given concentration) is “ethanol/water (80/20, w/w)”. In addition, the anti-erythemic activity entry in series [2] (conclusion) is “has anti-erythemic activity”. In addition, the “duration of some degree of blanching” value in series [2] (higher concentrations, after treatment, dose-related) fell in the range of 5 to 11 h. In series [2] (low concentrations, e.g., 0.03%, 1 to 4 times within 24 hours), the “blanching response, repeated application” value was “high blanching response”. For the same molecule, in series [2] (propylene glycol/ethanol (50/50, w/w) vehicle), the “antierythemic activity by vehicle” value is on record as “highest antierythemic activity”. For the same molecule, the “Tests with Analgesic Responses” value was 1/6 in series [3] (0.01% in Propylene Glycol/Ethanol (50/50, w/w)); 2/6 in series [3] (0.1% in Propylene Glycol/Ethanol (50/50, w/w)); 9/12 in series [3] (1.0% in Propylene Glycol/Ethanol (50/50, w/w)). Moreover, the “dose dependence of the analgesic response” value in series [3] (0.01-1.0% in Propylene Glycol/Ethanol (50/50, w/w)) is given as “dose-dependent”. Further, the “analgesic activity, three applications compared with 2 or 1” value in series [3] (0.25%) is “more effective than 2 or 1 applications”. For the same molecule, in series [3] (1%), the “analgesic activity, repeated application compared with single application” value is given as “failed to increase the level of analgesic activity effected by a single application”. In series [3] (1% (w/w) in propylene glycol/ethanol (50/50, w/w), treatment 2 to 6 hours after UV-irradiation, following treatment), the “time of maximum analgesic activity” value fell in the range of 2 to 4 h. In series [3] (1% (w/w) in propylene glycol/ethanol (50/50, w/w), after treatment(s)), the “duration of some analgesic effects” value is “up to 10 hours”. For the same molecule, the “Recovery of Treated Skin” value in series [3] (2-4 hours after treatment, 22 subjects, SE 0.5, normal minus non-treated skin 4.0) stood at 2.4 s; in series [3] (5-7 hours after treatment, 16 subjects, SE 0.4), 1.6 s; in series [3] (8-10 hours after treatment, 6 subjects, SE 0.7), 1.4 s. For the same molecule, in series [3] (Ethanol/water (80/20), ethanol/propylene glycol/water (50/10/40), and a cream), the “delivery of an efficacious dose into the skin, compared with propylene glycol/ethanol” value is listed as “somewhat less effective than propylene glycol/ethanol”. For the same molecule, the topical analgesic activity result in series [3] (conclusion, rather severe and acute pain) was “does have topical analgesic activity for rather severe and acute pain”. In addition, in series [3] (in 8 out of the 12 tests, at least one concentration at one time point), the “return to normal pain tolerance” value is at least 80%. Besides, the “analgesic action in non-irradiated skin” value in series [3] (non-irradiated skin) was “No evidence of analgesic action was found”. Moreover, in series [3] (propylene glycol/ethanol (50/50, w/w) vehicle, compared with 4 vehicle systems), the “analgesic response by vehicle” value is given as “strongest analgesic activity”. In series [3] (skin treated 2 to 6 hours following UV-irradiation), the analgesic activity entry is on record as “Analgesic activity was demonstrated”. For the same molecule, the “tests in which at least one concentration at one time point effected at least an 80% return to normal pain tolerance” value in series [3] (setting [7]) is on record as 8 out of the 12. In addition, in series [3] (setting [7]), the “tests with statistically significant analgesia” value is listed as 9 out of 12. Also, in series [4] (2% solution in 1:1 propylene glycol and ethanol), the “reduction in pedal edema compared to non-treated control group” value is listed as “significant improvement compared to the non-treated control group”. In series [4], the “reduction in pedal edema compared with aspirin 200 mg/kg/day oral” value was “comparable”.
Turning to `CC(=O)Oc1ccc(OC(C)=O)c(C(=O)OC(C)c2ccccc2)c1` (stereo not shown) [CH(C6 H5)CH3], in series [1], the IC50 was 1200 µM.
As for `CC(=O)Oc1ccccc1C(=O)O` [aspirin], in series [5], the “gastric irritation and frank stomach bleeding, patients affected” value is on record as “up to 70%”. Also, in series [6] (repeated topical application of a high level), the “skin irritation on repeated topical application” value was “primary irritation and peeling of the superificial layers (the stratum corneum) of the skin”. For the same molecule, in series [6] (topical), the “concentration needed for topical analgesic effect” value was “a relatively high concentration of aspirin must be topically applied before its effect as a topical analgesic is noted”; the “effect on inflammation in humans when applied topically” value is “can delay and decrease inflammation in humans when applied topically”.
With `CCCCCCCCCCCCOC(=O)c1cc(OC(C)=O)ccc1OC(C)=O` [C12 H25, Dodecyl 2,5-diacetoxybenzoate], the IC50 in series [1] is 1200 µM.
